Source: patent publication US10988477B2 (Merck Patent GmbH, priority 2018, dated 2021)

Target: GCN2 kinase (Homo sapiens, UniProt Q9P2K8)
Assay: GCN2 enzyme inhibition assay (Transcreener ADP2 fluorescence polarization)
Assay type: biochemical
Details: Enzyme activity for compounds of Formula IV; Ki(app), 280 μM ATP, 25° C.
In short: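 ADP formation read by Transcreener FP after a 1 h, 25 °C kinase reaction containing 280 μM ATP, 200 μM (RS)7 substrate and 4 nM GCN2, pH 7.5 Tris buffer. Compounds (0–8 μM final) were added 10 min before ATP. Percent inhibition gave IC50 and apparent Ki via tight-binding fit.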

Chain of GCN2 kinase (Q9P2K8 whole entry): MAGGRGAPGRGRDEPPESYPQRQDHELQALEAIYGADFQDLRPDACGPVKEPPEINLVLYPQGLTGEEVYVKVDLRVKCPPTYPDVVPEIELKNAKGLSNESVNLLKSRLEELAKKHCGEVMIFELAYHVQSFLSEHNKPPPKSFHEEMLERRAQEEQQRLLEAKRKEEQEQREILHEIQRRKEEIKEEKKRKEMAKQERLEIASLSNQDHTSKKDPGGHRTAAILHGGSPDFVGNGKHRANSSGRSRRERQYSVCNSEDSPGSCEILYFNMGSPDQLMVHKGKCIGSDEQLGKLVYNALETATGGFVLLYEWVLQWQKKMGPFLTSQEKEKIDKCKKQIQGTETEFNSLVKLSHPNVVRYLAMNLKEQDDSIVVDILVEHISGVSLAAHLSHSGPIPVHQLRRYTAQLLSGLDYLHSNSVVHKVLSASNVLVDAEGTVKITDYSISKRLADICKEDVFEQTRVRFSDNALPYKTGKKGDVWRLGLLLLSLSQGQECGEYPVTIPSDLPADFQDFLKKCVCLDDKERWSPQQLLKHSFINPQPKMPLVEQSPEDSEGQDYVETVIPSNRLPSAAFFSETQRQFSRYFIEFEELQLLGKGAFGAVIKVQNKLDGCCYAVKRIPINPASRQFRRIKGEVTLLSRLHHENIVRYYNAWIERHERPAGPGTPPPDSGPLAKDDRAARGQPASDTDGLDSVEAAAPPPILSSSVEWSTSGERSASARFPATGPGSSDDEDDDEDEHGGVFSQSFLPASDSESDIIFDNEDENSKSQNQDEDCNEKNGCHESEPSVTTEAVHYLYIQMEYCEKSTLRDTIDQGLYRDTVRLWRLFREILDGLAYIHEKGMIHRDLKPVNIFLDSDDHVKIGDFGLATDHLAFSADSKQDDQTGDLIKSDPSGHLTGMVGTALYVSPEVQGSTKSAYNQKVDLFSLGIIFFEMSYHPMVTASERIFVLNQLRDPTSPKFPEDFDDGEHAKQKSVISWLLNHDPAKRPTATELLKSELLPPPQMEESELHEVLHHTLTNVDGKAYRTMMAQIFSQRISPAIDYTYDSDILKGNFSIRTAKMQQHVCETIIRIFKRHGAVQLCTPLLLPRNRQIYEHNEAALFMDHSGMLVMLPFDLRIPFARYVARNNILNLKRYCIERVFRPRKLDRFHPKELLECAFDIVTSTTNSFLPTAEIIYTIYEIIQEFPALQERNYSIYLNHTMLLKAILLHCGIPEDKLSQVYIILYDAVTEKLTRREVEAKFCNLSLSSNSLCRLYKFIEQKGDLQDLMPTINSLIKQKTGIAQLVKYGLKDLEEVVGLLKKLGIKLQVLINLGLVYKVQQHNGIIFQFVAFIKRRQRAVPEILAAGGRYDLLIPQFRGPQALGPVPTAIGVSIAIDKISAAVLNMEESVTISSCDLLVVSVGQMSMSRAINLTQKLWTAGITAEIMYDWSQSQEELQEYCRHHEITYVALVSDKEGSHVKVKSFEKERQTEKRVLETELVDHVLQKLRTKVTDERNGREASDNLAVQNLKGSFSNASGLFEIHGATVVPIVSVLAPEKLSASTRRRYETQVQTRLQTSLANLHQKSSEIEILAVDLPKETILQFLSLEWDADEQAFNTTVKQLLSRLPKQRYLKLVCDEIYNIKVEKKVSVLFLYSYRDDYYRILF

Row | Ki [nM] | SMILES
1 | 100 to 1000 | CC(=O)NC1CCCN(c2ccnc(-c3cnc4cnc(C(F)(F)F)cn34)n2)C1 (stereo not drawn) [IV-530, N-(1-(2-(6-(Trifluoromethyl)imidazo[1,2-a]pyrazin-3-yl)pyrimidin-4-yl)piperidin-3-yl)acetamide]
2 | 100 to 1000 | CC1C(c2cn[nH]c2)OCCN1c1ccnc(-c2cnc3cnc(Cl)cn23)n1 (single isomer, unassigned) [IV-244, 4-(2-(6-Chloroimidazo[1,2-a]pyrazin-3-yl)pyrimidin-4-yl)-3-methyl-2-(1H-pyrazol-4-yl)morpholine]
3 | 100 to 1000 | CC1CN(c2ccnc(-c3cnc4cnc(C(F)(F)F)cn34)n2)CC1C (stereo not drawn) [IV-555, 3-(4-(3,4-Dimethylpyrrolidin-1-yl)pyrimidin-2-yl)-6-(trifluoromethyl)imidazo[1,2-a]pyrazine]
4 | 100 to 1000 | NC(=O)NCC1CCCN(c2ccnc(-c3cnc4cnc(C(F)(F)F)cn34)n2)C1 (stereo not drawn) [IV-527, 1-((1-(2-(6-(Trifluoromethyl)imidazo[1,2-a]pyrazin-3-yl)pyrimidin-4-yl)piperidin-3-yl)methyl)urea]
5 | 100 to 1000 | CC1CCN(c2ccnc(-c3cnc4cnc(C(F)(F)F)cn34)n2)CC1n1ccnc1 (stereo not drawn) [IV-319, 3-(4-(3-(1H-Imidazol-1-yl)-4-methylpiperidin-1-yl)pyrimidin-2-yl)-6-(trifluoromethyl)imidazo[1,2-a]pyrazine]
6 | 10 to 100 | OCCCC1CCN(c2ccnc(-c3cnc4cnc(C(F)(F)F)cn34)n2)C1 (stereo not drawn) [IV-616, 3-(1-(2-(6-(Trifluoromethyl)imidazo[1,2-a]pyrazin-3-yl)pyrimidin-4-yl)pyrrolidin-3-yl)propan-1-ol]
7 | > 1000 | O=C(N[C@H]1CCCN(c2ccnc(-c3cnc4cnc(C(F)(F)F)cn34)n2)C1)c1cc[nH]n1 [IV-737]
8 | 100 to 1000 | NS(=O)(=O)c1cc2c(s1)CCN(c1ccnc(-c3cnc4cnc(C(F)(F)F)cn34)n1)C2 [IV-715]
9 | 100 to 1000 | CC(=O)N1CCN(c2ccnc(-c3cnc4cnc(-c5ccc(C(N)=O)cc5)cn34)n2)CC1 [IV-303, 4-(3-(4-(4-Acetylpiperazin-1-yl)pyrimidin-2-yl)imidazo[1,2-a]pyrazin-6-yl)benzamide]
10 | 10 to 100 | N#CC1CN(c2ccnc(-c3cnc4cnc(C(N)=O)cn34)n2)CCC1=O (stereo not drawn) [IV-253, 3-(4-(3-Cyano-4-oxopiperidin-1-yl)pyrimidin-2-yl)imidazo[1,2-a]pyrazine-6-carboxamide]
11 | 100 to 1000 | FC(F)(F)c1cn2c(-c3nccc(N4CCOC(c5ccccn5)C4)n3)cnc2cn1 (stereo not drawn) [IV-717]
12 | 100 to 1000 | CC(=O)N1CCN(c2ccnc(-c3cnc4cnc(C(N)=O)cn34)n2)C(C)C1 (stereo not drawn) [IV-272, 3-(4-(4-Acetyl-2-methylpiperazin-1-yl)pyrimidin-2-yl)imidazo[1,2-a]pyrazine-6-carboxamide]
13 | 100 to 1000 | Cn1ccc2cc(-c3ccnc(-c4cnc5cnc(C(F)F)cn45)n3)ccc21 [IV-158, 6-(Difluoromethyl)-3-(4-(1-methyl-1H-indol-5-yl)pyrimidin-2-yl)imidazo[1,2-a]pyrazine]
14 | 10 to 100 | C[C@H]1[C@H](c2cn[nH]c2)OCCN1c1ccnc(-c2cnc3cnc(Br)cn23)n1 (racemic) [IV-312, Trans-4-(2-(6-Bromoimidazo[1,2-a]pyrazin-3-yl)pyrimidin-4-yl)-3-methyl-2-(1H-pyrazol-4-yl)morpholine]
15 | 100 to 1000 | FC(F)(F)c1cn2c(-c3nccc(N4CCCC(c5cc(C(F)(F)F)[nH]n5)C4)n3)cnc2cn1 (stereo not drawn) [IV-653, 6-(Trifluoromethyl)-3-(4-(3-(5-(trifluoromethyl)-1H-pyrazol-3-yl)piperidin-1-yl)pyrimidin-2-yl)imidazo[1,2-a]pyrazine]
16 | 100 to 1000 | FC(F)(F)c1cn2c(-c3nccc(N4CCC(c5nnc[nH]5)C4)n3)cnc2cn1 (stereo not drawn) [IV-642, 3-(4-(3-(4H-1,2,4-Triazol-3-yl)pyrrolidin-1-yl)pyrimidin-2-yl)-6-(trifluoromethyl)imidazo[1,2-a]pyrazine]
17 | < 10 | CC1C(c2cn[nH]c2)OCCN1c1ccnc(-c2cnc3cnc(Br)cn23)n1 (single isomer, unassigned) [IV-328, 4-(2-(6-Bromoimidazo[1,2-a]pyrazin-3-yl)pyrimidin-4-yl)-3-methyl-2-(1H-pyrazol-4-yl)morpholine]
18 | 10 to 100 | CC1CN(c2nccc(-c3cnc4cnc(Cl)cn34)n2)C(C)C(c2cn[nH]c2)N1 (stereo not drawn) [IV-382, 6-Chloro-3-(2-(2,5-dimethyl-3-(1H-pyrazol-4-yl)piperazin-1-yl)pyrimidin-4-yl)imidazo[1,2-a]pyrazine]
19 | 100 to 1000 | CC1CC(C(N)=O)C(C)N(c2ccnc(-c3cnc4cnc(C(F)(F)F)cn34)n2)C1 (single isomer, unassigned) [IV-500, 2,5-Dimethyl-1-(2-(6-(trifluoromethyl)imidazo[1,2-a]pyrazin-3-yl)pyrimidin-4-yl)piperidine-3-carboxamide]
20 | 10 to 100 | CC1C(c2cn[nH]c2)OCCN1c1ccnc(-c2cnc3cnc(C(F)(F)F)cn23)n1 (single isomer, unassigned) [IV-315, 3-Methyl-2-(1H-pyrazol-4-yl)-4-(2-(6-(trifluoromethyl)imidazo[1,2-a]pyrazin-3-yl)pyrimidin-4-yl)morpholine]
21 | 100 to 1000 | CC(=O)N1CCN(c2ccc(C(F)(F)F)c(-c3cnc4cnc(C(N)=O)cn34)n2)CC1 [IV-700, 3-(6-(4-acetylpiperazin-1-yl)-3-(trifluoromethyl)pyridin-2-yl)imidazo[1,2-a]pyrazine-6-carboxamide]
22 | 100 to 1000 | CS(=N)(=O)CC1CCCN(c2ccnc(-c3cnc4cnc(C(F)F)cn34)n2)C1 (single isomer, unassigned) [IV-339, ((1-(2-(6-(Difluoromethyl)imidazo[1,2-a]pyrazin-3-yl)pyrimidin-4-yl)piperidin-3-yl)methyl)(imino)(methyl)-λ^6-sulfanone]
23 | 10 to 100 | CC1CC(C(N)=O)C(C)N(c2ccnc(-c3cnc4cnc(C(F)(F)F)cn34)n2)C1 (single isomer, unassigned) [IV-481, 2,5-Dimethyl-1-(2-(6-(trifluoromethyl)imidazo[1,2-a]pyrazin-3-yl)pyrimidin-4-yl)piperidine-3-carboxamide]
24 | 100 to 1000 | FC(F)(F)c1cn2c(-c3nccc(N4CCC(C5COC5)C4)n3)cnc2cn1 (stereo not drawn) [IV-508, 3-(4-(3-(Oxetan-3-yl)pyrrolidin-1-yl)pyrimidin-2-yl)-6-(trifluoromethyl)imidazo[1,2-a]pyrazine]

Same assay, conditions: compounds of Formula II; 280 μM ATP, 4 nM GCN2 kinase

Row | Ki [nM] | SMILES
25 | 10 to 1000 | CC1CC(N=S(C)(C)=O)C(C)N(c2cc(-c3cnc4ccc(C(F)F)nn34)ncn2)C1 (single isomer, unassigned) [II-630, ((1-(6-(6-(Difluoromethyl)imidazo[1,2-b]pyridazin-3-yl)pyrimidin-4-yl)-2,5-dimethylpiperidin-3-yl)imino)dimethyl-λ^6-sulfanone]
26 | 10 to 1000 | CC1CC(N=S(C)(C)=O)CN(c2cc(-c3cnc4ccc(C(F)F)nn34)ccn2)C1 (stereo not drawn) [II-691, ((1-(4-(6-(Difluoromethyl)imidazo[1,2-b]pyridazin-3-yl)pyridin-2-yl)-5-methylpiperidin-3-yl)imino)dimethyl-λ^6-sulfanone]
27 | 10 to 1000 | CCC1COC(CNS(C)(=O)=O)CN1c1cc(-c2cnc3ccc(C(F)F)nn23)ncn1 (stereo not drawn) [II-269, N-((4-(6-(6-(Difluoromethyl)imidazo[1,2-b]pyridazin-3-yl)pyrimidin-4-yl)-5-ethylmorpholin-2-yl)methyl)methanesulfonamide]
28 | 10 to 1000 | CC1CC(P(C)(C)=O)CN(c2cc(-c3cnc4ccc(C(F)(F)F)nn34)ncn2)C1 (stereo not drawn) [II-713, 3-[6-(3-Dimethylphosphoryl-5-methyl-1-piperidyl)pyrimidin-4-yl]-6-(trifluoromethyl)imidazo[1,2-b]pyridazine]
29 | < 10 | CS(=O)(=O)NCc1cccc(-c2cc(-c3cnc4ccc(C(F)F)nn34)ncn2)c1 [II-576, N-[[3-[6-[6-(Difluoromethyl)imidazo[1,2-b]pyridazin-3-yl]pyrimidin-4-yl]phenyl]methyl]methanesulfonamide]
30 | 10 to 1000 | CC1CN(c2cc(-c3cnc4ccc(C(F)F)nn34)ncn2)C(C)C(c2cn[nH]c2)N1 (single isomer, unassigned) [II-653, 6-(Difluoromethyl)-3-(6-(2,5-dimethyl-3-(1H-pyrazol-4-yl)piperazin-1-yl)pyrimidin-4-yl)imidazo[1,2-b]pyridazine]
31 | 10 to 1000 | CS(=N)(=O)Cc1cccc(-c2cc(-c3cnc4ccc(C(F)F)nn34)ncn2)c1 (stereo not drawn) [II-598, (3-(6-(6-(Difluoromethyl)imidazo[1,2-b]pyridazin-3-yl)pyrimidin-4-yl)benzyl)(imino)(methyl)-λ^6-sulfanone]
32 | 10 to 1000 | CC1C(CO)CCCN1c1cc(-c2cnc3ccc(C(F)F)nn23)ncn1 (stereo not drawn) [II-554, (1-(6-(6-(Difluoromethyl)imidazo[1,2-b]pyridazin-3-yl)pyrimidin-4-yl)-2-methylpiperidin-3-yl)methanol]
33 | < 10 | Cc1cc(CNS(C)(=O)=O)cc(-c2cc(-c3cnc4ccc(C(F)F)nn34)ncn2)c1 [II-612, N-(3-(6-(6-(Difluoromethyl)imidazo[1,2-b]pyridazin-3-yl)pyrimidin-4-yl)-5-methylbenzyl)methanesulfonamide]
34 | 10 to 1000 | CC1CN(c2cc(-c3cnc4ccc(C(F)F)nn34)ncn2)CC(CO)C1(F)F (stereo not drawn) [II-624, (1-(6-(6-(Difluoromethyl)imidazo[1,2-b]pyridazin-3-yl)pyrimidin-4-yl)-4,4-difluoro-5-methylpiperidin-3-yl)methanol]
35 | > 1000 | CC1C(CO)N(C(C)(C)C)CCN1c1cc(-c2cnc3ccc(C(F)F)nn23)ncn1 (stereo not drawn) [II-43, (1-(tert-Butyl)-4-(6-(6-(difluoromethyl)imidazo[1,2-b]pyridazin-3-yl)pyrimidin-4-yl)-3-methylpiperazin-2-yl)methanol]

Same assay, conditions: compounds of Formula IV; 280 μM ATP, 4 nM GCN2 kinase

Row | IC50 [nM] | SMILES
36 | 10 to 1000 | C[C@@H]1C[C@H](N=S(C)(C)=O)CN(c2ccnc(-c3cnc4cnc(Cl)cn34)n2)C1 [IV-773, (((3S,5R)-1-(2-(6-chloroimidazo[1,2-a]pyrazin-3-yl)pyrimidin-4-yl)-5-methylpiperidin-3-yl)imino)dimethyl-16-sulfanone]
